# Measurements: patent US12202785B2 (Texas Tech University System, priority 2018, dated 2025)
# Entries after “also recorded” stand apart in the source; their conditions may differ.
# Legend:
# [1] = tested on: Drinking In the Dark (DID) murine model of binge drinking; experiment: Drinking In the Dark (DID) murine model of binge drinking; assay type: in vivo, mice; conditions: for binge ethanol consumption: figure legends FIG. 8C to 15C, dose not given
# Method: Using a standard Drinking In the Dark (DID) murine model of binge drinking, we tested the effect of 0, 25, 35, 50 and 100 mg/kg per os (p.o.) acetylated minocycline (derivative Y, or CMM1) vs control.
# [2] = tested on: Large White x Landrace hybrid swine; experiment: Two-bucket choice water vs 5% ethanol in swine; conditions: 10 mg/kg p.o., n=3/group
# E. coli = E. coli zone of inhibition (ZOI) and recovered colony forming units (CFU) per disk; assay type: cell-based; conditions: dose response
# Method: Minocycline and two acetylated derivatives, CMM1 (B) and CMM2 (Y), were tested in a dose response manner for A) zone of inhibition (ZOI) and B) recovered colony forming units (CFU) per disk.
# [3] = tested on: DBA/2J mice, alcohol withdrawal symptoms; experiment: Alcohol withdrawal, Handling Induced Convulsion scores; assay type: in vivo
# Method: Female and male DBA/2J mice were tested with CMM1, 100 mg/kg p.o., at 2 hrs following 4 g/kg 20% ethanol in saline. Shown are the Handling Induced Convulsion scores, background subtracted and summed over 24 hours. […] Mean±SEM, n=5/group.
# [4] = cited from earlier work
# AUD traits = conditions: seven tetracyclines tested; earlier published work of the inventors; cited from earlier work
# DID ethanol consumption = experiment: Drinking In the Dark (DID) ethanol consumption after ten-day GI microbiome sterilization; assay type: in vivo; conditions: 100 mg/kg i.p.; ampicillin, neomycin, metronidazole, vancomycin pre-treatment vs none; n=7
# Method: A ten-day “sterilization” treatment with ampicillin, neomycin, metronidozale and vancomycin was used. Bedding was changed daily to avoid repopulation. DID was started on day 11 after one day of no metronidazole. Tigecycline was given at 100 mg/kg intraperitoneal (i.p.) n=7, mean±SEM.
# DID consumption = experiment: DID ethanol consumption after intracerebroventricular (ICV) dosing; assay type: in vivo; conditions: 3 ul of 9 mg/ml icv 20 hrs prior to DID testing; n=9-11; p<0.01
# Method: To test the hypothesis that tigecycline works at the level of the CNS, rather than the PNS, 3 ul of drug (9 mg/ml) was given icy 20 hrs prior to DID testing. n=9-11, mean±SEM, **p<0.01.
structure (smiles),measurement,setting,value
"COc1ccc(N(C)C)c2c1C(=O)C1=C(O)c3c(O)c(C(=O)NC(C)=O)c(O)c(N(C)C)c3CC1C2 (stereo not shown) [Methyl Ether N-Monoacetate Minocycline, 4,7-Bis-dimethylamino-1,3,12-trihydroxy-10-methoxy-11-oxo-5,5a,6,11-tetrahydro-naphthacene-2-carboxylic acid acetyl-amide]",binge ethanol consumption,[1],reduction of binge ethanol consumption
"COc1ccc(N(C)C)c2c1C(=O)C1=C(O)C3(O)C(=O)C(C(N)=O)=C(O)C(N(C)C)C3CC1C2 (stereo not shown) [Methyl Ether Minocycline, 4,7-Bis-dimethylamino-3,12,12a-trihydroxy-10-methoxy-1,11-dioxo-1,4,4a,5,5a,6,11,12a-octahydro-naphthacene-2-carboxylic acid amide]",binge ethanol consumption,[1],reduction of binge ethanol consumption
"CC(=O)NC(=O)c1c(OC(C)=O)c2c(c(N(C)C)c1OC(C)=O)CC1Cc3c(N(C)C)ccc(OC(C)=O)c3C(=O)C1=C2OC(C)=O (stereo not shown) [CMM1, Acetic acid 3,10,12-triacetoxy-2-acetylcarbamoyl-4,7-bis-dimethylamino-11-oxo-5,5a,6,11-tetrahydro-naphthacen-1-yl ester]",alcohol preference,[2],reduced
same,total ethanol consumption,[2],reduced
same,antibiotic activity (ZOI and recovered CFU per disk),E. coli,loss of antibiotic activity even at high doses
same,dose dependence of reduction of alcohol consumption,"[1]; 0, 25, 35, 50 and 100 mg/kg p.o.",dose-dependent response
same,ethanol consumption (drinking),"[1]; 0, 25, 35, 50 and 100 mg/kg p.o. vs control, n=4/group, p=0.004",significantly reduced drinking
same,water consumption,[1]; FIGS. 5A to 5D,not water consumption
same,efficacy on withdrawal compared with parent drug minocycline,[3]; 100 mg/kg p.o.,more effective than the parent drug
same,"efficacy on withdrawal, females vs males",[3]; 100 mg/kg p.o.,more effective in females
same,"alcohol withdrawal symptoms (Handling Induced Convulsion scores, background subtracted, summed over 24 hours)","[3]; 100 mg/kg p.o. at 2 hrs following 4 g/kg 20% ethanol, female and male, n=5/group",reduced alcohol withdrawal symptoms
same,"onset, peak and duration of withdrawal symptoms","[3]; 100 mg/kg p.o., n=5/group","reduced onset, peak and duration of withdrawal symptoms"
"CC(=O)NC(=O)c1c(OC(C)=O)c2c(c(N(C)C)c1OC(C)=O)CC1Cc3c(N(C)C)ccc(OC(C)=O)c3C(=O)C1=C2O (stereo not shown) [Tetra Acetyl Minocycline, Acetic acid 3,10-diacetoxy-2-acetylcarbamoyl-4,7-bis-dimethylamino-12-hydroxy-11-oxo-5,5a,6,11-tetrahydro-naphthacen-1-yl ester]",binge ethanol consumption,[1],reduction of binge ethanol consumption
"CCCCOc1ccc(N(C)C)c2c1C(=O)C1=C(O)C3(O)C(=O)C(C(N)=O)=C(O)C(N(C)C)C3CC1C2 (stereo not shown) [Butyl Ether Minocycline, 10-Butoxy-4,7-bis-dimethylamino-3,12,12a-trihydroxy-1,11-dioxo-1,4,4a,5,5a,6,11,12a-octahydro-naphthacene-2-carboxylic acid amide]",binge ethanol consumption,[1],reduction of binge ethanol consumption
"CC(=O)NC(=O)c1c(O)cc2c(c1O)C(O)=C1C(=O)c3c(OC(C)=O)ccc(N(C)C)c3CC1C2 (stereo not shown) [De Methyl Diacetate Minocycline, Acetic acid 9-acetylcarbamoyl-4-dimethylamino-8,10,11-trihydroxy-12-oxo-5,5a,6,12-tetrahydro-naphthacen-1-yl ester]",binge ethanol consumption,[1],reduction of binge ethanol consumption
"CC(=O)NC(=O)c1c(OC(C)=O)c2c(c(N(C)C)c1OC(C)=O)CC1Cc3c(N(C)C)ccc(OC(C)=O)c3C(=O)C1=C2O (stereo not shown) [CMM2, Acetic acid 3,10-diacetoxy-2-acetylcarbamoyl-4,7-bis-dimethylamino-12-hydroxy-11-oxo-5,5a,6,11-tetrahydro-naphthacen-1-yl ester]",antibiotic activity (ZOI and recovered CFU per disk),E. coli,loss of antibiotic activity even at high doses
C[C@H]1c2cccc(O)c2C(=O)C2=C(O)[C@]3(O)C(=O)C(C(N)=O)=C(O)[C@@H](N(C)C)[C@@H]3[C@@H](O)[C@@H]21 [Doxycycline],LogD,[4],−3.29
same,LogP,[4],−0.54
same,efficacy against AUD traits,AUD traits,efficacious; also recorded: effective
CN(C)[C@@H]1C(O)=C(C(N)=O)C(=O)[C@@]2(O)C(O)=C3C(=O)c4c(O)ccc(Cl)c4[C@@H](O)[C@H]3C[C@@H]12 [Demeclocycline],LogD,[4],−3.40
same,LogP,[4],−1.07
CN(C)[C@@H]1C(=O)C(C(N)=O)=C(O)[C@@]2(O)C(=O)C3=C(O)c4c(O)cccc4[C@@](C)(O)[C@H]3[C@H](O)[C@@H]12 [Oxytetracycline],LogD,[4],−4.25
same,LogP,[4],−1.5
"COc1ccc(N(C)C)c2c1C(=O)C1=C(O)c3c(c(N(C)C)c(OC(C)=O)c(C(=O)NC(C)=O)c3OC(C)=O)CC1C2 (stereo not shown) [Methyl Ether Tri Acetate Minocycline, Acetic acid 4-acetoxy-3-acetylcarbamoyl-1,10-bis-dimethylamino-5-hydroxy-7-methoxy-6-oxo-6,11,11a,12-tetrahydro-naphthacen-2-yl ester]",binge ethanol consumption,[1],reduction of binge ethanol consumption
"CC(=O)NC(=O)c1c(OC(C)=O)c2c(c(N(C)C)c1OC(C)=O)CC1Cc3c(N(C)C)ccc(OC(C)=O)c3C(=O)C1=C2OC(C)=O (stereo not shown) [Penta Acetyl Minocycline, Acetic acid 3,10,12-triacetoxy-2-acetylcarbamoyl-4,7-bis-dimethylamino-11-oxo-5,5a,6,11-tetrahydro-naphthacen-1-yl ester]",binge ethanol consumption,[1],reduction of binge ethanol consumption
CN(C)c1cc(NC(=O)CNC(C)(C)C)c(O)c2c1C[C@H]1C[C@H]3[C@H](N(C)C)C(O)=C(C(N)=O)C(=O)[C@@]3(O)C(O)=C1C2=O [Tigecycline],LogD,[4],−2.73
same,LogP,[4],−1.30
same,efficacy against AUD traits,AUD traits,efficacious; also recorded: effective
same,DID ethanol consumption / efficacy of tigecycline after gut sterilization,DID ethanol consumption,No significant difference
same,DID ethanol consumption,DID consumption,reduced DID consumption
"CN(C)c1ccc(O)c2c1CC1CC3C(N(C)C)C(O)=C(C(N)=O)C(=O)C3(O)C(O)=C1C2=O (stereo not shown) [Minocycline, 4,7-Bis-dimethylamino-3,10,12,12a-tetrahydroxy-1,11-dioxo-1,4,4a,5,5a,6,11,12a-octahydro-naphthacene-2-carboxylic acid amide]",efficacy against AUD traits,AUD traits,efficacious; also recorded: effective
same,antibiotic activity (ZOI and recovered CFU per disk),E. coli,eliminated E. coli
"CCOc1ccc(N(C)C)c2c1C(=O)C1=C(O)C3(O)C(=O)C(C(N)=O)=C(O)C(N(C)C)C3CC1C2 (stereo not shown) [Ethyl Ether Minocycline, 4,7-Bis-dimethylamino-10-ethoxy-3,12,12a-trihydroxy-1,11-dioxo-1,4,4a,5,5a,6,11,12a-octahydro-naphthacene-2-carboxylic acid amide]",binge ethanol consumption,[1],reduction of binge ethanol consumption
"CCCOc1ccc(N(C)C)c2c1C(=O)C1=C(O)C3(O)C(=O)C(C(N)=O)=C(O)C(N(C)C)C3CC1C2 (stereo not shown) [Propyl Ether Minocycline, 4,7-Bis-dimethylamino-3,12,12a-trihydroxy-1,11-dioxo-10-propoxy-1,4,4a,5,5a,6,11,12a-octahydro-naphthacene-2-carboxylic acid amide]",binge ethanol consumption,[1],reduction of binge ethanol consumption
